What was measured:
[1] = test system: NBD1/3D; assay: Aggregation analysis using differential static light scattering (DSLS), NBD1 thermal stability; format: binding, Human; conditions: ΔTagg versus DMSO control; compound at 100 μM
In short: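 Purified NBD1 at 0.2 mg/ml in S200 buffer (pH 7.6, 2 mM ATP, 5 mM MgCl2, 1% glycerol) was heated with compound at 1 °C/min to 70 °C. Tagg taken from the light-scattering curve inflection point; ΔTagg = compound Tagg minus mean DMSO control Tagg.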

[2] = biological target: T1, CFTR (Homo sapiens, UniProt P13569, DEL508-508); assay: TECC24 recording of CFTR-mediated transepithelial chloride transport in ΔF508 homozygous CF-HBE cells; format: cell-based; conditions: 10 μM test agent, 48 hours incubation, AUC of forskolin-stimulated IEQ divided by vehicle AUC, primary CF-HBE cells
T1 construct: Primary human bronchial epithelial cells from a ΔF508 homozygous CF donor; host or cells: primary human bronchial epithelial cells (CF-HBE), ΔF508 homozygous donor
Procedure: The effects of a test agent on CFTR-mediated transepithelial chloride transport was measured using TECC24 recording analysis. Test agents were solubilized in DMSO. Solubilized test agents were mixed with incubation medium containing DMEM/F12, Ultroser G (2%; Crescent Chemical, catalog #67042), Hyclone Fetal Clone II (2%; GE Healthcare, catalog #SH30066.02), bovine brain extract (0.25%; Lonza, catalog #CC-4098), insulin (2.5 μg/mL), IL-13 (10 ng/mL), hydrocortisone (20 nM), transferrin (2.5 μg/mL), triiodothyronine (500 nM), ethanolamine (250 nM), epinephrine (1.5 μM), phosphoethanolamine (250 nM), and retinoic acid (10 nM). Primary human bronchial epithelial cells from a ΔF508 homozygous CF donor (CF-HBE cells; from University of North Carolina Cystic Fibrosis Tissue Procurement Center), grown on Transwell HTS 24-well cell culture inserts (Costar, catalog #3378), were exposed to test agents or controls dissolved in incubation medium. The CF-HBE cells were cultured at 36.5° C. for 48 hours before TECC24 recordings were performed in the presence or absence of test agent, a positive control or vehicle (DMSO).
Following incubation, the transwell cell culture inserts containing the test agent or control-treated CF-HBE cells were loaded onto a TECC24 apparatus (TECC v7 or MTECC v2; EP Design) to record the transepithelial voltage (VT) and resistance (TEER) using 4 AgCl electrodes per well configured in current-clamp mode. The apical and basolateral bath solutions both contained (in mM) 140 NaCl, 5 KCl, 2 CaCl2, 1 MgCl2, 10 Hepes, and 10 glucose (adjusted to pH 7.4 with NaOH). To inhibit basal Na+ absorption, the ENaC inhibitor benzamil (10 μM) was added to the bath. Then, the adenylate cyclase activator, forskolin (10 μM), was added to the bath to activate CFTR. The forskolin-stimulated Cl— transport was halted by addition of CFTR inhibitor-172 (20 μM) to the bath at the end of the experiment to confirm specificity. VT and TEER recordings were digitally acquired at routine intervals using TECC or MTECC software (EP Design). VT and TEER were transformed into equivalent transpeithelial Cl— current (IEQ), and the Area Under the Curve (AUC) of the IEQ timecourse between forskolin and CFTR inhibitor-172 addition is generated using Excel (Microsoft). Efficacy is expressed as the ratio of the test agent AUC divided by vehicle AUC. EC50s based on AUC are generated using the non-linear regression log(agonist) vs. response function in Prism software (Graphpad) with HillSlope fixed=1.
If a test agent increased the AUC of the forskolin-stimulated IEQ relative to vehicle in CF-HBE cells, and this increase was inhibited by CFTR inhibitor-172, then the test agent was considered a CFTR corrector.

T1 sequence (P13569 with tags, fused parts or gaps DEL508-508): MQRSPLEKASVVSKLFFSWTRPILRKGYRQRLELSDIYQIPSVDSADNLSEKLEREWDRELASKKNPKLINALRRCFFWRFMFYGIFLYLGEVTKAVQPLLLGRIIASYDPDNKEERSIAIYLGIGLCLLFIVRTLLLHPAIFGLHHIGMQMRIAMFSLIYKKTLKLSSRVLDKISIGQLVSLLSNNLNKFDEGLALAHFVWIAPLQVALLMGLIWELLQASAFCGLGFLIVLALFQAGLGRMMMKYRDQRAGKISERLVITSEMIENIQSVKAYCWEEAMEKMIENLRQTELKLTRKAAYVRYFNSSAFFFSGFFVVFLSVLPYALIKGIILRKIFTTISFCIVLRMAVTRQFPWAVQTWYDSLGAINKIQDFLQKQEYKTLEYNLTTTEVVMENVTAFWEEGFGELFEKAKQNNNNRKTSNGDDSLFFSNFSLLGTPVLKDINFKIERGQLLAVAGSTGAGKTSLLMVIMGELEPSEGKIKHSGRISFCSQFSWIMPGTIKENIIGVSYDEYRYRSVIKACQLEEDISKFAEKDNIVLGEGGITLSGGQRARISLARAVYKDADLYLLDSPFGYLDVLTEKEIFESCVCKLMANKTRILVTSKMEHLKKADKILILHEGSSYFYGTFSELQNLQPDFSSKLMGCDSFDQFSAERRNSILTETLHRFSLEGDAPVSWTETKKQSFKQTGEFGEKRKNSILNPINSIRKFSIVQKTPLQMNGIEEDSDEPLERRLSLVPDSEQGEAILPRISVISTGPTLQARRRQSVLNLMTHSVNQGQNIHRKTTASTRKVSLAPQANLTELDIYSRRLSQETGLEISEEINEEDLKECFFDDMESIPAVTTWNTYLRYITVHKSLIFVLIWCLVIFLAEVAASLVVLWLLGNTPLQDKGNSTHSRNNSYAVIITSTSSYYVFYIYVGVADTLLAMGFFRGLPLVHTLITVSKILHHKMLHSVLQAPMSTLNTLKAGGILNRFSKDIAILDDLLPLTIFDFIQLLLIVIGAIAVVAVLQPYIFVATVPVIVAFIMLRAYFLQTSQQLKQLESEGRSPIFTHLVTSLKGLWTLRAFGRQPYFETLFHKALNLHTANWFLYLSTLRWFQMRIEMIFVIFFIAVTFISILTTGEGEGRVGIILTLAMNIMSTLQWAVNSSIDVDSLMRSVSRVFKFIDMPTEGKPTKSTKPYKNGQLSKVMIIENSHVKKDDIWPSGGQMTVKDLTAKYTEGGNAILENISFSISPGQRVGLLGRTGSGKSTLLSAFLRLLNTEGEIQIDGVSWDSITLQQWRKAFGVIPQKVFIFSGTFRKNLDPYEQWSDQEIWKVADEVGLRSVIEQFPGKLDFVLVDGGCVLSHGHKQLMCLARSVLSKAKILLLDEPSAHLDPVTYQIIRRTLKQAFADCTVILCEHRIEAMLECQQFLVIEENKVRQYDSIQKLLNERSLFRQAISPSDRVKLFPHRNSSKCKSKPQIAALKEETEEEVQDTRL

Row | Compound | DSLS NBD1/3D Human Stability delta-T (° C.) @ 100 (μM) [1] | TECC24 @ 10 μM over DMSO (AUC fold over DMSO) [2]
1 | C[C@H]1C[C@](c2cccc(CCC(=O)O)c2)(c2c[nH]c(-c3cc(Oc4c(F)cc5[nH]ccc5c4F)ccc3F)n2)CCO1 (racemic) [Example 155, 3-(3-((2S)-4-(2-(5-((4,6-difluoro-1H-indol-5-yl)oxy)-2-fluorophenyl)-1H-imidazol-5-yl)-2-methyltetrahydro-2H-pyran-4-yl)phenyl)propanoic acid] | A (A: T ≥ 10° C.) | A (“A” refers to AUC @10 uM >= 12)
2 | Cc1c(Oc2ccc(F)c(-c3ncc([C@]4(c5cccc(CCC(=O)O)c5)C[C@H](O)CO4)[nH]3)c2)c(F)cc2[nH]ccc12 (racemic) [Example 274, rac-3-(3-((2r,4s)-2-(2-(2-Fluoro-5-((6-fluoro-4-methyl-1H-indol-5-yl)oxy)phenyl)-1H-imidazol-5-yl)-4-hydroxytetrahydrofuran-2-yl)phenyl)propanoic acid] | A (A: T ≥ 10° C.) | C (“C” refers to AUC @ 10 uM <= 4)
3 | CC(c1ccn(-c2cccc(Oc3c(F)cc4[nH]ccc4c3S(C)(=O)=O)c2)n1)c1cccc(CCC(=O)O)c1F (single isomer, unassigned) [Example 23B, 3-(2-fluoro-3-(1-(1-(3-((6-fluoro-4-(methylsulfonyl)-1H-indol-5-yl)oxy)phenyl)-1H-pyrazol-3-yl)ethyl)phenyl)propanoic acid] | A (A: T ≥ 10° C.) | A (“A” refers to AUC @10 uM >= 12)
4 | CC(c1cccc(CCC(=O)O)c1F)n1ccc(-c2cc(Oc3c(F)cc4[nH]ccc4c3S(C)(=O)=O)ccc2F)n1 (single isomer, unassigned) [Example 41B, 3-(2-fluoro-3-(1-(3-(2-fluoro-5-((6-fluoro-4-(methylsulfonyl)-1H-indol-5-yl)oxy)phenyl)-1H-pyrazol-1-yl)ethyl)phenyl)propanoic acid] | A (A: T ≥ 10° C.) | A (“A” refers to AUC @10 uM >= 12)
5 | [2H]C([2H])([2H])C(C#N)(c1cccc(CCC(=O)O)c1)c1cnc(-c2cc(Oc3c(F)c(F)c4[nH]ccc4c3F)ccc2F)[nH]1 (single isomer, unassigned) [Example 64A, 3-(3-(1-Cyano-1-(2-(2-fluoro-5-((4,6,7-trifluoro-1H-indol-5-yl)oxy)phenyl)-1H-imidazol-5-yl)ethyl-2,2,2-d3)phenyl)propanoic acid] | B (B: 5-10° C.) | B (“B” refers to AUC @10 uM between 4-12)
6 | [2H]C([2H])([2H])C(C#N)(c1cccc(CCC(=O)O)c1)c1cnc(-c2cc(Oc3c(F)c(F)c4[nH]ccc4c3F)ccc2F)[nH]1 (single isomer, unassigned) [Example 64B, 3-(3-(1-Cyano-1-(2-(2-fluoro-5-((4,6,7-trifluoro-1H-indol-5-yl)oxy)phenyl)-1H-imidazol-5-yl)ethyl-2,2,2-d3)phenyl)propanoic acid] | B (B: 5-10° C.) | A (“A” refers to AUC @10 uM >= 12)
7 | [2H]c1c[nH]c2c(F)c(F)c(Oc3ccc(F)c(-c4nc(C(C#N)(c5cc(F)cc(CCC(=O)O)c5)C([2H])([2H])[2H])c[nH]4)c3)c(F)c12 (single isomer, unassigned) [Example 67B, 3-(3-(1-cyano-1-(2-(2-fluoro-5-((4,6,7-trifluoro-1H-indol-5-yl-3-d)oxy)phenyl)-1H-imidazol-4-yl)ethyl-2,2,2-d3)-5-fluorophenyl)propanoic acid] | B (B: 5-10° C.) | C (“C” refers to AUC @ 10 uM <= 4)
8 | CC(c1c[nH]c(-c2cc(Oc3c(F)cc4[nH]ccc4c3S(C)(=O)=O)ccc2F)n1)c1cccc(CC(=O)O)c1F (single isomer, unassigned) [Example 84, 2-(2-fluoro-3-(1-(2-(2-fluoro-5-((6-fluoro-4-(methylsulfonyl)-1H-indol-5-yl)oxy)phenyl)-1H-imidazol-4-yl)ethyl)phenyl)acetic acid] | A (A: T ≥ 10° C.) | B (“B” refers to AUC @10 uM between 4-12)
9 | CC(=O)NCc1c(Oc2cccc(-c3ncc(C(O)c4cccc(CCC(=O)O)c4)[nH]3)c2)ccc2[nH]ccc12 (stereo not shown) [Example 262, 3-(3-((2-(3-((4-(Acetamidomethyl)-1H-indol-5-yl)oxy)phenyl)-1H-imidazol-5-yl)(hydroxy)methyl)phenyl)propanoic acid] | A (A: T ≥ 10° C.) | 
10 | CC(C)(C)NCc1c(Oc2cccc(-c3ncc(C(O)c4cccc(CCC(=O)O)c4)[nH]3)c2)ccc2[nH]ccc12 (stereo not shown) [Example 263, 3-(3-((2-(3-((4-((tert-Butylamino)methyl)-1H-indol-5-yl)oxy)phenyl)-1H-imidazol-5-yl)(hydroxy)methyl)phenyl)propanoic acid] | A (A: T ≥ 10° C.) | 
11 | COC(=O)CCc1cccc(C(C)(O)c2cnc(-c3cccc(Oc4ccc5[nH]ccc5c4CNC(C)=O)c3)[nH]2)c1 (stereo not shown) [Example 264, Methyl 3-(3-(1-(2-(3-((4-(acetamidomethyl)-1H-indol-5-yl)oxy)phenyl)-1H-imidazol-5-yl)-1-hydroxyethyl)phenyl)propanoate] | A (A: T ≥ 10° C.) | 
12 | O=C(O)CCc1cccc(Cc2cnc(-c3cc(Oc4c(F)cc5[nH]ccc5c4CNCC(F)(F)F)ccc3F)[nH]2)c1 [Example 265, 3-(3-((2-(2-Fluoro-5-((6-fluoro-4-(((2,2,2-trifluoroethyl)amino)methyl)-1H-indol-5-yl)oxy)phenyl)-1H-imidazol-5-yl)methyl)phenyl)propanoic acid] | B (B: 5-10° C.) | 
13 | O=C(O)CCc1cccc(C(O)c2cnc(-c3cccc(Oc4c(F)cc5[nH]ccc5c4-c4ccn[nH]4)c3)[nH]2)c1 (stereo not shown) [Example 267, 3-(3-((2-(3-((6-Fluoro-4-(1H-pyrazol-5-yl)-1H-indol-5-yl)oxy)phenyl)-1H-imidazol-5-yl)(hydroxy)methyl)phenyl)propanoic acid] | B (B: 5-10° C.) | 
14 | OCCCc1cccc(Cc2cnc(-c3cc(Oc4c(F)cc5[nH]ccc5c4F)ccc3F)[nH]2)c1F [Example 268, 3-(3-((2-(5-((4,6-Difluoro-1H-indol-5-yl)oxy)-2-fluorophenyl)-1H-imidazol-5-yl)methyl)-2-fluorophenyl)propan-1-ol] | C (C: ≤5° C.) | 
15 | O=P(O)(O)OCCCc1cccc(Cc2cnc(-c3cc(Oc4c(F)cc5[nH]ccc5c4F)ccc3F)[nH]2)c1F [Example 269, 3-(3-((2-(5-((4,6-Difluoro-1H-indol-5-yl)oxy)-2-fluorophenyl)-1H-imidazol-5-yl)methyl)-2-fluorophenyl)propyl dihydrogen phosphate] | C (C: ≤5° C.) | 
16 | O=C(O)CCc1cccc(Cc2cnc(-c3cccc(Oc4c(F)cc5[nH]ccc5c4-c4ccn[nH]4)c3)[nH]2)c1 [Example 271, 3-(3-((2-(3-((6-Fluoro-4-(1H-pyrazol-5-yl)-1H-indol-5-yl)oxy)phenyl)-1H-imidazol-4-yl)methyl)phenyl)propanoic acid] | B (B: 5-10° C.) | 
17 | COc1cc(F)c(-c2ncc(C(C)(O)c3cccc(CCC(=O)O)c3)[nH]2)cc1Oc1c(F)cc2[nH]ccc2c1C (stereo not shown) [Example 281, 3-(3-(1-(2-(2-fluoro-5-((6-fluoro-4-methyl-1H-indol-5-yl)oxy)-4-methoxyphenyl)-1H-imidazol-5-yl)-1-hydroxyethyl)phenyl) propanoic acid] | B (B: 5-10° C.) | 
